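Test compounds were applied to cells in 96-well plates for 48 hours at 5 doses. The concentration for 50% growth inhibition is given as GI50.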 Calls of active or inactive are those of the source. No stated cut-off is given here; in the data, active = GI50 up to about 1.1 µM and inactive = higher. Where a SMILES comes first, the peptide text is derived from it. The star is where a group is joined. Boc = CC(C)(C)OC(=O)*
How the values were obtained:
Test in all cases: DTP human tumour cell line panel, 48 h
SW-620 = test system: SW-620
SF-268 = test system: SF-268
IGROV-1 = test system: IGROV-1
SK-MEL-28 = test system: SK-MEL-28
OVCAR-4 = test system: OVCAR-4
SNB-19 = test system: SNB-19
HOP-62 = test system: HOP-62
HCT-116 = test system: HCT-116
OVCAR-5 = test system: OVCAR-5
OVCAR-8 = test system: OVCAR-8
COLO 205 = test system: COLO 205
HT-29 = test system: HT-29
SK-MEL-2 = test system: SK-MEL-2
KM12 = test system: KM12
NCI-H522 = test system: NCI-H522
SNB-75 = test system: SNB-75
SF-295 = test system: SF-295
OVCAR-3 = test system: OVCAR-3
UACC-257 = test system: UACC-257
MCF7 = test system: MCF7

Row | Structure (SMILES) | GI50 (SW-620) | GI50 (SF-268) | GI50 (IGROV-1) | GI50 (SK-MEL-28) | GI50 (OVCAR-4) | GI50 (SNB-19) | GI50 (HOP-62) | GI50 (HCT-116) | GI50 (OVCAR-5) | GI50 (OVCAR-8) | GI50 (COLO 205) | GI50 (HT-29) | GI50 (SK-MEL-2) | GI50 (KM12) | GI50 (NCI-H522) | GI50 (SNB-75) | GI50 (SF-295) | GI50 (OVCAR-3) | GI50 (UACC-257) | GI50 (MCF7)
1 | CC(=O)NNc1nc(C)c(C(=O)NNC(=O)C(=O)Nc2ccccc2C#N)s1 | > 100 µM (inactive) | > 100 µM (inactive) | > 100 µM (inactive) | > 100 µM (inactive) | > 100 µM (inactive) | > 100 µM (inactive) | > 100 µM (inactive) | > 100 µM (inactive) | > 100 µM (inactive) | > 100 µM (inactive) | > 100 µM (inactive) | > 100 µM (inactive) | > 100 µM (inactive) | 50.1 µM (inactive) | 88.1 µM (inactive) | > 100 µM (inactive) | > 100 µM (inactive) | > 100 µM (inactive) | > 100 µM (inactive) | 
2 | CC(C)(C)OC(=O)NC(Cc1ccccc1)C(=O)N1CCCC1C(N)=O (stereo not drawn) (Boc-Phe-Pro-NH2; configuration not given here) | > 100 µM (inactive) | > 100 µM (inactive) | > 100 µM (inactive) | > 100 µM (inactive) | > 100 µM (inactive) | > 100 µM (inactive) | > 100 µM (inactive) | > 100 µM (inactive) |  | > 100 µM (inactive) | > 100 µM (inactive) | > 100 µM (inactive) |  |  | > 100 µM (inactive) |  | > 100 µM (inactive) | > 100 µM (inactive) | > 100 µM (inactive) | > 100 µM (inactive)
3 | CC1C2CC(CC2O)C1(C)C (stereo unspecified) | > 100 µM (inactive) | > 100 µM (inactive) | > 100 µM (inactive) | > 100 µM (inactive) | > 100 µM (inactive) | > 100 µM (inactive) | > 100 µM (inactive) | > 100 µM (inactive) | > 100 µM (inactive) | > 100 µM (inactive) | > 100 µM (inactive) | > 100 µM (inactive) |  | > 100 µM (inactive) | > 100 µM (inactive) | > 100 µM (inactive) | > 100 µM (inactive) | > 100 µM (inactive) | > 100 µM (inactive) | 
4 | CN1NC(c2ccc(Cl)cc2)=C(C#N)C(=O)CC1c1ccccc1 (stereo unspecified) | > 100 µM (inactive) | > 100 µM (inactive) |  | > 100 µM (inactive) | > 100 µM (inactive) | > 100 µM (inactive) |  | > 100 µM (inactive) | > 100 µM (inactive) |  | > 100 µM (inactive) | > 100 µM (inactive) | > 100 µM (inactive) | > 100 µM (inactive) | 79.4 µM (inactive) | > 100 µM (inactive) | > 100 µM (inactive) |  | > 100 µM (inactive) | 
5 | c1ccc(-c2nnc(-c3nsc4ccccc34)o2)cc1 | > 100 µM (inactive) | > 100 µM (inactive) | 60.4 µM (inactive) | > 100 µM (inactive) | > 100 µM (inactive) | > 100 µM (inactive) | > 100 µM (inactive) | > 100 µM (inactive) | > 100 µM (inactive) | > 100 µM (inactive) | > 100 µM (inactive) | > 100 µM (inactive) | > 100 µM (inactive) | > 100 µM (inactive) |  | 2.56 µM (inactive) |  | > 100 µM (inactive) | > 100 µM (inactive) | 
6 | Nc1nc(O)c2ncn(C3C=CC(CO)O3)c2n1 (stereo unspecified) | > 100 µM (inactive) |  |  | > 100 µM (inactive) | > 100 µM (inactive) | > 100 µM (inactive) | > 100 µM (inactive) | > 100 µM (inactive) | > 100 µM (inactive) | > 100 µM (inactive) | > 100 µM (inactive) | > 100 µM (inactive) | > 100 µM (inactive) | > 100 µM (inactive) |  | > 100 µM (inactive) | > 100 µM (inactive) | > 100 µM (inactive) | > 100 µM (inactive) | 75.2 µM (inactive)
7 | O=C(c1ccccc1)c1nc2ccc(Cl)cc2c2c1CCCO2 | > 100 µM (inactive) | > 100 µM (inactive) | > 100 µM (inactive) | 33.7 µM (inactive) | > 100 µM (inactive) | > 100 µM (inactive) | > 100 µM (inactive) | > 100 µM (inactive) | > 100 µM (inactive) | > 100 µM (inactive) | > 100 µM (inactive) | > 100 µM (inactive) | > 100 µM (inactive) | > 100 µM (inactive) | > 100 µM (inactive) |  | 50 µM (inactive) | > 100 µM (inactive) |  | 
8 | O=C(NN1C(=O)C(Cl)C1c1ccccc1O)c1ccccc1O (stereo unspecified) | 32.7 µM (inactive) | 44.1 µM (inactive) | 30.6 µM (inactive) | 22.3 µM (inactive) | 22.5 µM (inactive) | 0.365 µM (active) | 29 µM (inactive) | 3.69 µM (inactive) |  | 26.4 µM (inactive) | 21.4 µM (inactive) | 6.61 µM (inactive) | 19.8 µM (inactive) | 7.31 µM (inactive) | 29 µM (inactive) | 49.9 µM (inactive) | 26.8 µM (inactive) | 3.13 µM (inactive) | 22.2 µM (inactive) | 
9 | CCOC(=O)C(Cc1ccc(N=NN(C)C)cc1)NC(=O)CC1c2ccccc2-c2ccccc21 (stereo unspecified) | > 100 µM (inactive) | > 100 µM (inactive) | 69.8 µM (inactive) | > 100 µM (inactive) | > 100 µM (inactive) | > 100 µM (inactive) | > 100 µM (inactive) | > 100 µM (inactive) | > 100 µM (inactive) | > 100 µM (inactive) | 92.7 µM (inactive) | > 100 µM (inactive) | > 100 µM (inactive) | > 100 µM (inactive) | 56.2 µM (inactive) | > 100 µM (inactive) | > 100 µM (inactive) | 36.1 µM (inactive) | > 100 µM (inactive) | 
10 | Cc1ccc(N2C(=O)/C(=C3\SC(C(N)=O)=C(N)N3c3ccccc3)SC2=S)cc1 | > 100 µM (inactive) | 15.7 µM (inactive) | > 100 µM (inactive) | > 100 µM (inactive) |  | 57.5 µM (inactive) | 25.8 µM (inactive) | 71 µM (inactive) | 2.21 µM (inactive) | 46 µM (inactive) | > 100 µM (inactive) | 44.3 µM (inactive) |  | > 100 µM (inactive) | 27.7 µM (inactive) | 7.91 µM (inactive) | 24.9 µM (inactive) | 90.2 µM (inactive) | > 100 µM (inactive) | 
11 | CCOCNC(=O)N(COCC)COCC | > 100 µM (inactive) | > 100 µM (inactive) | > 100 µM (inactive) | > 100 µM (inactive) |  | > 100 µM (inactive) | > 100 µM (inactive) | > 100 µM (inactive) | > 100 µM (inactive) | > 100 µM (inactive) | > 100 µM (inactive) | > 100 µM (inactive) | > 100 µM (inactive) | > 100 µM (inactive) | > 100 µM (inactive) | > 100 µM (inactive) | > 100 µM (inactive) | 33 µM (inactive) | > 100 µM (inactive) | 

Reference: ChEMBL document CHEMBL1201862, “PubChem BioAssay data set” (2004)
